Measurements from patent US10927105B1 (Lundbeck La Jolla Research Center, Inc., priority 2017, dated 2021).

How the values were obtained:
MAGL [1] = molecular target: T1, MAGL (Mus musculus (Mouse), UniProt O35678); experiment: Mouse brain proteomes from inhibitor treated mice (oral gavage, sacrificed 4 h after administration, brain proteomes analyzed); type: in vivo; details: 5 mg/kg oral gavage
FAAH [2] = molecular target: T2, FAAH (Mus musculus (Mouse), UniProt O08914); experiment: Mouse brain proteomes from inhibitor treated mice (oral gavage, sacrificed 4 h after administration), FAAH; type: in vivo; details: 5 mg/kg oral gavage
T2 sequence (O08914 whole entry): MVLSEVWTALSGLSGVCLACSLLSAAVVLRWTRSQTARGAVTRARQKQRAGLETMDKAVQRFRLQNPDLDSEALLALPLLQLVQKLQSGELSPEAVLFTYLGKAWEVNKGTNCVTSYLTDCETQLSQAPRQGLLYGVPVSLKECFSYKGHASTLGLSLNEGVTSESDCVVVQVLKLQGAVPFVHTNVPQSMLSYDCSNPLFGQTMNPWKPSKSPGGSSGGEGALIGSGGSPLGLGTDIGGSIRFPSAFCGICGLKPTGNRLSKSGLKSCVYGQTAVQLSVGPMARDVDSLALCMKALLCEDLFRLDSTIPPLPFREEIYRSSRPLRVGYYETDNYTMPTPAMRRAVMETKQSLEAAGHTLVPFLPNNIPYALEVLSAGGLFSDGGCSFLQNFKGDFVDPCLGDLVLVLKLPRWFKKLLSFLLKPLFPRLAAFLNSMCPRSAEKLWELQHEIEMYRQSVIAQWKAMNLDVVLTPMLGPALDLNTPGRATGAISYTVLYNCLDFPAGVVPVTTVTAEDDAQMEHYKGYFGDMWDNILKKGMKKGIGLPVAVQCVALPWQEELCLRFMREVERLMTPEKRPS

MAGL [3] = molecular target: T1, MAGL; experiment: In vitro competitive activity-based protein profiling (mouse brain membrane fraction, FP-Rh probe), MAGL band
Experimental: (§1) Biological Evaluation In Vitro Competitive Activity-Based Protein Profiling.
(§2) Proteomes (mouse brain membrane fraction for mouse assays; human prefrontal cortex membrane fractions for human assays) (50 mL, 1.0 mg/mL total protein concentration) were preincubated with varying concentrations of inhibitors at 37° C. After 30 min, FP-Rh (1.0 mL, 50 mM in DMSO) was added and the mixture was incubated for another 30 min at 37° C. Reactions were quenched with SDS loading buffer (15 μL-4×) and run on SDS-PAGE.

FAAH [4] = molecular target: T2, FAAH; experiment: In vitro competitive activity-based protein profiling (mouse brain membrane fraction, FP-Rh probe), FAAH band
Experimental: as §1, §2

MAGL [5] = molecular target: MAGL (Homo sapiens (Human), UniProt Q99685); experiment: In vitro competitive activity-based protein profiling (human prefrontal cortex membrane fractions, FP-Rh probe), MAGL band; details: 1 μM; human prefrontal cortex membrane fractions
Sequence of MAGL (Homo sapiens (Human), UniProt Q99685) (Q99685 whole entry): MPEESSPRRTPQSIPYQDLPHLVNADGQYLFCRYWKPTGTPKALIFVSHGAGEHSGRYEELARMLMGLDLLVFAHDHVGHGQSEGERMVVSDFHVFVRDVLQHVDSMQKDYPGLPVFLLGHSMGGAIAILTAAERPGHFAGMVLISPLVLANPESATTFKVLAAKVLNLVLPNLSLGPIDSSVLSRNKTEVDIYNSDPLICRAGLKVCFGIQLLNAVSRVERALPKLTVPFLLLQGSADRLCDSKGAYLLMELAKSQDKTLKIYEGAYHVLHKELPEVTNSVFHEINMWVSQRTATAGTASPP
Experimental: as §1, §2

FAAH [6] = molecular target: FAAH (Homo sapiens (Human), UniProt O00519); experiment: In vitro competitive activity-based protein profiling (human prefrontal cortex membrane fractions, FP-Rh probe), FAAH band; details: 1 μM; human prefrontal cortex membrane fractions
Sequence of FAAH (Homo sapiens (Human), UniProt O00519) (O00519 whole entry): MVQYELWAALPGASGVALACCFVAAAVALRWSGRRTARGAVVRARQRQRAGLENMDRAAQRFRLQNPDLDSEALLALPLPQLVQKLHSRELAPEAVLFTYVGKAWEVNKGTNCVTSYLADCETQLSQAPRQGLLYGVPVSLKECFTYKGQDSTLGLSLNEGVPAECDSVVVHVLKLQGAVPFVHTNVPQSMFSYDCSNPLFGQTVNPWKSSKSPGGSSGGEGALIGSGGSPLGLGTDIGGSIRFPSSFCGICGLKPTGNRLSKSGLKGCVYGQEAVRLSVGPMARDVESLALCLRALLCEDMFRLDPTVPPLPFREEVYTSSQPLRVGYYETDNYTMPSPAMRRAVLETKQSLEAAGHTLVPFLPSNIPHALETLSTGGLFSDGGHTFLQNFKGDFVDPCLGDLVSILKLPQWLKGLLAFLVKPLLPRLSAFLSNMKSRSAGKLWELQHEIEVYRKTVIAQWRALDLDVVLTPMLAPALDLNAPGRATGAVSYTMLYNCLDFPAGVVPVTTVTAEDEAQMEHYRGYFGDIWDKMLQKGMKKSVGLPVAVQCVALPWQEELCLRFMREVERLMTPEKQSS
Experimental: as §1, §2

FAAH [7] = molecular target: T2, FAAH; experiment: Mouse brain proteomes from inhibitor treated mice (oral gavage, sacrificed 4 h after administration, brain proteomes analyzed), FAAH; type: in vivo; details: 5 mg/kg oral gavage, read-out: FAAH % inh. 5 mg/kg (mouse)

T1 sequence (O35678 whole entry): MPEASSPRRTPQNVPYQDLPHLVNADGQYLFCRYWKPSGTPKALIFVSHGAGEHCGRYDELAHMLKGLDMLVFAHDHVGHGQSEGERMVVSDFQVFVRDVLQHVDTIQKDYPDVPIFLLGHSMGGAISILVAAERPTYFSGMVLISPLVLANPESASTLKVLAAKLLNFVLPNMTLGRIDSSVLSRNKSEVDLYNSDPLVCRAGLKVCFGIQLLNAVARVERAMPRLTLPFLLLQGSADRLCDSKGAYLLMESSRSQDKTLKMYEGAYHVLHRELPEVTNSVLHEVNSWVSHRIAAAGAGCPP

Row | SMILES | MAGL % inh. 5 mg/kg (mouse) (MAGL [1]) | FAAH % inh. 5 mg/kg (mouse) (FAAH [2]) | MAGL % inh. 1 μM (mouse) (MAGL [3]) | FAAH % inh. 1 μM (mouse) (FAAH [4]) | MAGL % inh. 1 μM (human) (MAGL [5]) | FAAH % inh. 1 μM (human) (FAAH [6]) | inhibition at 5 mg/kg (FAAH [7])
1 | O=C(O)c1ccn(C(=O)N2CCC3(CCCN3Cc3ccc(C(F)(F)F)cc3Cl)CC2)n1 [Example 76, 1-(1-(2-chloro-4-(trifluoromethyl)-benzyl)-1,8-diazaspiro[4.5]-decane-8-carbonyl)-1H-pyrazole-3-carboxylic acid] | D (% inhibition is greater than or equal to 0% and less than 25%) | D (% inhibition is greater than or equal to 0% and less than 25%) | A (% inhibition is greater than or equal to 75%) | D (% inhibition is greater than or equal to 0% and less than 25%) | A (% inhibition is greater than or equal to 75%) | D (% inhibition is greater than or equal to 0% and less than 25%) | 
2 | O=C(O)c1ccn(C(=O)N2CCC3(CCCN3C(=O)c3ccc(C(F)(F)F)cc3N3CCCC3)CC2)n1 [Example 403, 1-(1-(2-(pyrrolidin-1-yl)-4-(trifluoromethyl)-benzoyl)-1,8-diazaspiro[4.5]-decane-8-carbonyl)-1H-pyrazole-3-carboxylic acid] |  |  |  |  |  |  | 0 to 25%
3 | O=C(O)c1ccn(C(=O)N2CCC3(CCCN3Cc3ccc(C(F)(F)F)cc3N3CCCCC3)CC2)n1 [Example 404, 1-(1-(2-(piperidin-1-yl)-4-(trifluoromethyl)-benzyl)-1,8-diazaspiro[4.5]-decane-8-carbonyl)-1H-pyrazole-3-carboxylic acid] |  |  |  |  |  |  | 0 to 25%
